In article PMC5433425 (PeerJ, 2017):
Several values for one entry are separate records, joined by “and”; a condition that tells them apart may be missing. Equal entries are not always repeated. Where two headings read alike, the source gives them in different places. Peptide text beside a SMILES is read from it. * marks the point of attachment. βNA = c1ccc2cc(N*)ccc2c1

Tests used:
[1] = system: E. coli K-12 AG100 (wild-type); experiment: MIC, broth microdilution; type: cell-based; settings: Escherichia coli
E. coli AG100A = settings: EtBr […] + inhibitor 20 µM

NC(N)=NCCC[C@H](NC(=O)[C@@H](N)Cc1ccccc1)C(=O)Nc1ccc2ccccc2c1 [PAβN] (H-Phe-Arg-βNA)
MIC [1]: > 200 µg/mL and > 385 µM
EtBr fluorescence (E. coli AG100A; cycle 1): 2.806
EtBr fluorescence (E. coli AG100A; cycle 2): 3.199
EtBr fluorescence (E. coli AG100A; cycle 3): 3.493
EtBr fluorescence (E. coli AG100A; cycle 4): 3.706
EtBr fluorescence (E. coli AG100A; cycle 5): 3.997
EtBr fluorescence (E. coli AG100A; cycle 6): 4.263
EtBr fluorescence (E. coli AG100A; cycle 7): 4.462
EtBr fluorescence (E. coli AG100A; cycle 8): 4.698
EtBr fluorescence (E. coli AG100A; cycle 9): 5.01
EtBr fluorescence (E. coli AG100A; cycle 10): 5.162
EtBr fluorescence (E. coli AG100A; cycle 11): 5.32
EtBr fluorescence (E. coli AG100A; cycle 12): 5.607
EtBr fluorescence (E. coli AG100A; cycle 13): 5.848
EtBr fluorescence (E. coli AG100A; cycle 14): 6.013
EtBr fluorescence (E. coli AG100A; cycle 15): 6.228
EtBr fluorescence (E. coli AG100A; cycle 16): 6.479
EtBr fluorescence (E. coli AG100A; cycle 17): 6.607
EtBr fluorescence (E. coli AG100A; cycle 18): 6.927
EtBr fluorescence (E. coli AG100A; cycle 19): 6.923
EtBr fluorescence (E. coli AG100A; cycle 20): 7.2698
EtBr fluorescence (E. coli AG100A; cycle 21): 7.508
EtBr fluorescence (E. coli AG100A; cycle 22): 7.627
EtBr fluorescence (E. coli AG100A; cycle 23): 7.913
EtBr fluorescence (E. coli AG100A; cycle 24): 7.996
EtBr fluorescence (E. coli AG100A; cycle 25): 8.302
EtBr fluorescence (E. coli AG100A; cycle 26): 8.33
EtBr fluorescence (E. coli AG100A; cycle 27): 8.55
EtBr fluorescence (E. coli AG100A; cycle 28): 8.862
EtBr fluorescence (E. coli AG100A; cycle 29): 8.894
EtBr fluorescence (E. coli AG100A; cycle 30): 9.1148
